Measurements reported in patent US20260028390A1, “ALPHA1-ANTITRYPSIN FOR USE IN THE TREATMENT OF DISEASES OR DISORDERS OF THE NERVOUS SYSTEM SUCH AS CHRONIC INFLAMMATORY DEMYELINATING POLYNEUROPATHY” (Ageronix SA, priority 2022, published 2026).

Tested on: HMC3-MHCII^Luc cells
Test: RNAseq differential gene expression / GSEA in AAT-treated resting and IFNγ-activated microglia
Format: cell-based, human
Protocol: • A) Human microglial HMC3-MHCII^Luc cells were plated at day 0, presented IFNγ at day 1 until day 2 and measurement of the luciferase activity and cell viability were done at day 4. • B) AATs were applied from day 0 to day 4 on HMC3-MHCII^Luc cells. Activation was measured by the activity of MHCII-driven luciferase and represented as percentage of IFNγ control for all conditions. All conditions were performed in triplicates, error bars represent standard deviation. • C) Bulk RNA extraction was performed on the same HMC3-MHCII^Luc cultures. Quality control (QC) were applied to RNA before sequencing. QC of the sequencing was done prior to mapping on the human genome. Mapped reads were counted, and differential gene expression was measured between the conditions (see Table 1-10). (FIGS. 3A, 3B and 3C)
RNAseq data from plasma-derived and recombinant AATs were pooled, normalized and analyzed through Gene Set Enrichment Analysis (GSEA) (https://www.gsea-msigdb.org/gsea/index.jsp; Subramanian, A., et al. Proc. Natl. Acad. Sci. USA, 102 (43): 15545-15550, 2005.). […] Importantly, both the IFNγ and inflammatory responses were dampened by AAT. However, the downregulation of the inflammatory response genes in (C) was just under significance.
Tables of genes related to antigen presentation (Table 1), cytokine signaling (Table 2), interferon signaling (Table 3) and complement activation (Table 4). Inflammatory top gene (FC>2; p-value<0.05; left column), were defined by differential expression between untreated and IFNγ-treated cells (inflammation; middle column).
HMC3-MHCII^Luc and HMC3-MHCII^Luc; Ubi^AAT (endogenous AAT) cell lines were seeded into 96-well plates at a density of approximately 2500 cells/well. HMC3-MHCII^Luc cell line was plated and was added plasma-derived AAT and recombinant AATs (produced in CHO cells, AAT 1 and AAT 2) 3h later and at ranged concentration (1; 10 or 25 μM). 24h after, still in the presence of exogenous or endogenous AAT, microglial activation was induced with a 24h-long IFNγ presentation (10 ng/ml). IFNγ was then removed and both HMC3-MHCII^Luc and HMC3-MHCII^Luc; Ubi^AAT cells were cultured for 48h in exogenous or endogenous presence of AAT before cell cultures were beeing assessed for cell viability and activation (See FIGS. 3A, 3B, 3C and 4A,4B, 4C).
RNA samples from plasma-derived AAT and recombinant AAT Nr. 2 were checked for quality (2100 Bioanalyzer, Agilent) and libraries prepared with Truseq RNA Library Kit (Illumina, RS-122-2001). Libraries were sequenced (HiSeq 4000, Illumina) controlled for the quality of sequencing (FastQC), mapped on the human genome (STAR v.2.7.0f; UCSC hg38), reads were counted (HTSeq v0.9.1) and the differential expression analysis was performed with the R/Bioconductor package (edgeR 1.30.1.).

[1] = AAT (left block), GBS risk gene
[2] = AAT, resting microglia, AD risk gene
[3] = AAT, resting microglia, MCT*/PN risk gene
[4] = AAT, resting microglia, MS risk gene
[5] = AAT, resting microglia, PD risk gene
[6] = FC AAT, resting microglia, M2 gene

Substance: alpha1-antitrypsin (AAT) protein
- CDC42 expression FC AAT [1]: −1.35
- FOS expression FC AAT [1]: −2.31
- GLRX5 expression FC AAT [1]: 1.12
- GUK1 expression FC AAT [1]: 1.57
- HAGH expression FC AAT [1]: 1.40
- HMGB2 expression FC AAT [1]: −1.20
- MARCKS expression FC AAT [1]: −2.06
- PKN2 expression FC AAT [1]: −1.47
- SENP6 expression FC AAT [1]: −1.47
- SMCHD1 expression FC AAT [1]: −1.39
- ZNF12 expression FC AAT [1]: −1.26
- IFNγ and inflammatory responses (GSEA gene families) (AAT treatment in absence or presence of IFNγ, pooled plasma-derived and recombinant AAT RNAseq data): dampened
- ABCA7 expression FC [2]: 1.75
- APOE expression FC [2]: 1.74
- BIN1 expression FC [2]: 1.33
- CD2AP expression FC [2]: −1.39
- CLU expression FC [2]: −1.30
- PICALM expression FC [2]: −1.48
- PSEN2 expression FC [2]: 1.45
- TREM2 expression FC [2]: 2.22
- ARHGEF10 expression FC [3]: 1.19
- CCT5 expression FC [3]: −1.17
- DNAJB2* expression FC [3]: 1.39
- DST expression FC [3]: −1.35
- DYNC1H1* expression FC [3]: −1.40
- FIG4* expression FC [3]: −1.42
- GAN* expression FC [3]: −1.21
- GARS* expression FC [3]: −1.21
- GDAP1* expression FC [3]: −1.54
- GNB4* expression FC [3]: −1.56
- HSPB1* expression FC [3]: 1.67
- IFRD1 expression FC [3]: 1.23
- IGHMBP2* expression FC [3]: 1.39
- KIF1A expression FC [3]: 2.76
- KIF1B* expression FC [3]: −1.21
- LRSAM1* expression FC [3]: 1.36
- MTMR2* expression FC [3]: −1.36
- PLEKHG5* expression FC [3]: 1.49
- SBF2 expression FC [3]: −1.20
- SCN9A expression FC [3]: −1.50
- SCN11A expression FC [3]: 4.49
- SETX expression FC [3]: −1.23
- SPTLC1 expression FC [3]: −1.23
- TFG* expression FC [3]: −1.28
- TRIM2* expression FC [3]: −1.39
- TRPV4* expression FC [3]: 1.92
- WNK1 expression FC [3]: −1.14
- AGAP2 expression FC [4]: 1.30
- AHI1 expression FC [4]: −1.46
- CBLB expression FC [4]: −1.24
- CD40 expression FC [4]: 1.17
- CD58 expression FC [4]: −1.61
- CDC37 expression FC [4]: 1.26
- CYP24A1 expression FC [4]: 2.55
- EXTL2 expression FC [4]: −1.76
- HLA-A expression FC [4]: 1.48
- HLA-DRB1 expression FC [4]: −1.47
- METTL1 expression FC [4]: 1.22
- MPV17L2 expression FC [4]: 1.31
- PTGER4 expression FC [4]: −1.29
- PTPRK expression FC [4]: −1.38
- RPS6KB1 expression FC [4]: −1.23
- SLC30A7 expression FC [4]: −1.77
- ATP13A2 expression FC [5]: 1.42
- DNAJC6 expression FC [5]: −1.14
- DNAJC13 expression FC [5]: −1.37
- GIGYF2 expression FC [5]: −1.16
- LRP10 expression FC [5]: 1.29
- LRRK2 expression FC [5]: −3.98
- PLA2G6 expression FC [5]: 1.55
- SYNJ1 expression FC [5]: −1.33
- TMEM230 expression FC [5]: −1.42
- VPS13C expression FC [5]: −1.41
- VPS35 expression FC [5]: −1.42
- ACAN expression FC [6]: 1.37
- AP2A2 expression FC [6]: 1.26
- APLP1 expression FC [6]: 1.41
- APRT expression FC [6]: 1.16
- BAIAP2 expression FC [6]: 1.45
- C16orf45 expression FC [6]: 1.31
- CHPF expression FC [6]: 1.80
- COL1A1 expression FC [6]: 1.58
- COL11A1 expression FC [6]: 1.14
- DBN1 expression FC [6]: 1.42
- ENG expression FC [6]: 1.29
- EXTL1 expression FC [6]: 2.19
- FEZ1 expression FC [6]: 1.45
- FGD3 expression FC [6]: 1.76
- FOXC1 expression FC [6]: 1.26
- FZD2 expression FC [6]: 1.39
- FZD7 expression FC [6]: 1.24
- GADD45GIP1 expression FC [6]: 1.55
- GREM1 expression FC [6]: 1.69
- GUK1 expression FC [6]: 1.57
- HSPG2 expression FC [6]: 1.58
- IGFBP2 expression FC [6]: 1.63
- ITGA11 expression FC [6]: 1.65
- MARCH4 expression FC [6]: 1.28
- MBOAT7 expression FC [6]: 1.44
- METRN expression FC [6]: 2.23
- MIF expression FC [6]: 1.83
- MMP1 expression FC [6]: 2.51
- MOSPD3 expression FC [6]: 1.51
- MXRA8 expression FC [6]: 1.40
- NID1 expression FC [6]: 1.16
- NTN4 expression FC [6]: 1.25
- PAPPA expression FC [6]: 1.24
- PLEC expression FC [6]: 1.69
- PLTP expression FC [6]: 1.28
- PREX1 expression FC [6]: 1.25
- PRSS36 expression FC [6]: 1.58
- PTPRS expression FC [6]: 1.27
- RAB3IL1 expression FC [6]: 1.55
- RASA4B expression FC [6]: 1.46
- RASAL1 expression FC [6]: 1.52
- SART1 expression FC [6]: 1.44
- SEMA3B expression FC [6]: 1.50
- SERPINH1 expression FC [6]: 1.21
- SLC22A5 expression FC [6]: 1.22
- STC2 expression FC [6]: 1.42
- TAGLN expression FC [6]: 1.37
- TBCD expression FC [6]: 1.26
- TEKT4P2 expression FC [6]: 2.46
- TGFB1I1 expression FC [6]: 1.31
- TNFRSF1B expression FC [6]: 1.46
- TTC9 expression FC [6]: 1.65
- ZIC2 expression FC [6]: 2.42
- AHNAK2 expression FC (FC inflammation + AAT, M2 gene): 1.40
- ANPEP expression FC (FC inflammation + AAT, M2 gene): 1.25
- ARHGDIB expression FC (FC inflammation + AAT, M2 gene): 1.28
- BAIAP2 expression FC (FC inflammation + AAT, M2 gene): 1.24
- BGN expression FC (FC inflammation + AAT, M2 gene): 1.27
- CHPF expression FC (FC inflammation + AAT, M2 gene): 1.58
- CLIP3 expression FC (FC inflammation + AAT, M2 gene): 1.25
- CLMP expression FC (FC inflammation + AAT, M2 gene): 1.22
- COL11A1 expression FC (FC inflammation + AAT, M2 gene): 1.16
- DBN1 expression FC (FC inflammation + AAT, M2 gene): 1.31
- ENG expression FC (FC inflammation + AAT, M2 gene): 1.35
- EXTL1 expression FC (FC inflammation + AAT, M2 gene): 1.78
- FADS2 expression FC (FC inflammation + AAT, M2 gene): 1.20
- FAT1 expression FC (FC inflammation + AAT, M2 gene): 1.34
- FEZ1 expression FC (FC inflammation + AAT, M2 gene): 1.34
- FGD3 expression FC (FC inflammation + AAT, M2 gene): 2.31
- FZD2 expression FC (FC inflammation + AAT, M2 gene): 1.37
- FZD7 expression FC (FC inflammation + AAT, M2 gene): 1.36
- GADD45GIP1 expression FC (FC inflammation + AAT, M2 gene): 1.51
- GATA6 expression FC (FC inflammation + AAT, M2 gene): 1.47
- GREM1 expression FC (FC inflammation + AAT, M2 gene): 1.56
- GUK1 expression FC (FC inflammation + AAT, M2 gene): 1.31
- HCK expression FC (FC inflammation + AAT, M2 gene): 1.44
- HLA-DRB5 expression FC (FC inflammation + AAT, M2 gene): 2.09
- HSPG2 expression FC (FC inflammation + AAT, M2 gene): 1.41
